Assay results: ChEMBL document CHEMBL4417633, “Inhibitory polypeptides specific to WNT inhibitors” (2017)
Where a SMILES comes first, the peptide text is derived from it.

What was measured:
[1] = target: T1, Dickkopf-related protein 1 (Homo sapiens, UniProt O94907); assay: Inhibition of biotin-labeled human recombinant DKK1 assessed as reduction in DKK1 interaction with LRP-6/Fc incubated overnight by chemiluminescence based Alpha-screen assay
T1 sequence (O94907 whole entry): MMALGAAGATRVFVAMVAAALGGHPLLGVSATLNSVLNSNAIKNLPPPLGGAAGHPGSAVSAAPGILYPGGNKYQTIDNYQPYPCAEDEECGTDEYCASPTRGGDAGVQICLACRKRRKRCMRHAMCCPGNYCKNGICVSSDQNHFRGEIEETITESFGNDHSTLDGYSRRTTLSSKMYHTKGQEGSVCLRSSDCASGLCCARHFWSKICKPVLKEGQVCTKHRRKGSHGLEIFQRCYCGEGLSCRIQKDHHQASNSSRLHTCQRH

[2] = target: T2, Dickkopf WNT-signaling pathway inhibitor 1 (Rattus norvegicus, UniProt A6I0Z0); assay: Inhibition of biotin-labeled rat recombinant DKK1 assessed as reduction in DKK1 interaction with LRP-6/Fc incubated overnight by chemiluminescence based Alpha-screen assay
T2 sequence (A6I0Z0 whole entry): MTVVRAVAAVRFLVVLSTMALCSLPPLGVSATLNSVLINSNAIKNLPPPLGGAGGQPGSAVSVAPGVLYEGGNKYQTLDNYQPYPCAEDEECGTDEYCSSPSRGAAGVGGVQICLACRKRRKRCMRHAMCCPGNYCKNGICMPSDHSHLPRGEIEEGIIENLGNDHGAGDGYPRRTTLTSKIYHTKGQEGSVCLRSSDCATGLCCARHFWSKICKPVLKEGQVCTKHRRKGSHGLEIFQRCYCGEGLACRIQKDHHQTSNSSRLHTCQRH

| IC50 [1] [nM] | IC50 [2] [nM] | SMILES |
| --- | --- | --- |
| ≤ 1 | ≤ 1 | CSCC[C@H](NC(=O)[C@H](CCCCN)NC(=O)[C@H](CC(=O)O)NC(=O)[C@@H]1CCCN1C(=O)[C@H](CS)NC(=O)[C@H](CCSC)NC(=O)[C@H](Cc1ccccc1)NC(=O)[C@H](CCC(=O)O)NC(=O)[C@H](CC(N)=O)NC(=O)[C@H](CO)NC(=O)[C@@H]1CCCN1C(=O)[C@@H](N)CS)C(=O)N[C@@H](CS)C(=O)N[C@@H](Cc1ccccc1)C(=O)N1CCC[C@H]1C(=O)N[C@@H](CC(C)C)C(=O)N[C@@H](CO)C(=O)N[C@@H](Cc1ccccc1)C(=O)N[C@@H](CCCNC(=N)N)C(=O)N[C@@H](CS)C(=O)N[C@@H](CC(=O)O)C(=O)NCC(=O)N[C@@H](CCC(=O)O)C(=O)N[C@@H](CC(N)=O)C(=O)N[C@@H](CC(=O)O)C(=O)N[C@@H](CS)C(=O)N[C@@H](CCC(=O)O)C(=O)N[C@@H](CC(=O)O)C(=O)NCC(=O)N[C@@H](CO)C(=O)N[C@@H](CC(=O)O)C(=O)N[C@@H](CCC(=O)O)C(=O)N[C@@H](CC(C)C)C(=O)N[C@@H](Cc1ccc(O)cc1)C(=O)N[C@@H](CS)C(=O)N1CCC[C@H]1C(=O)N[C@@H](CO)C(=O)N[C@@H](CCCNC(=N)N)C(=O)N[C@H](C(=O)O)[C@@H](C)O (H-CPSNEFMCPDKMCFPLSFRCDGENDCEDGSDELYCPSRT-OH) |
| 40 to 80 | 40 to 80 | CSCC[C@H](NC(=O)[C@@H]1CCCN1C(=O)[C@H](Cc1ccc(O)cc1)NC(=O)[C@H](CS)NC(=O)[C@H](Cc1cnc[nH]1)NC(=O)[C@H](CC(N)=O)NC(=O)[C@H](CC(N)=O)NC(=O)[C@H](CC(N)=O)NC(=O)[C@H](CCCNC(=N)N)NC(=O)[C@H](CS)NC(=O)[C@H](CCC(N)=O)NC(=O)[C@H](Cc1ccccc1)NC(=O)[C@H](Cc1ccc(O)cc1)NC(=O)[C@H](CO)NC(=O)[C@H](C)NC(=O)[C@@H]1CCCN1C(=O)[C@@H](N)CS)C(=O)N[C@@H](CCC(=O)O)C(=O)N[C@@H](Cc1c[nH]c2ccccc12)C(=O)N[C@@H](CCCNC(=N)N)C(=O)N[C@@H](CS)C(=O)N[C@@H](CC(=O)O)C(=O)NCC(=O)N[C@@H](Cc1ccccc1)C(=O)N[C@@H](CCC(N)=O)C(=O)N[C@@H](CC(=O)O)C(=O)N[C@@H](CS)C(=O)N[C@@H](CCC(=O)O)C(=O)N[C@@H](CC(=O)O)C(=O)NCC(=O)N[C@@H](CO)C(=O)N[C@@H](CC(=O)O)C(=O)N[C@@H](CCC(=O)O)C(=O)N[C@@H](CCCCN)C(=O)NCC(=O)N[C@@H](CS)C(=O)N1CCC[C@H]1C(=O)N[C@@H](Cc1ccc(O)cc1)C(=O)N[C@@H](CCCNC(=N)N)C(=O)N[C@H](C(=O)O)[C@@H](C)O (H-CPASYFQCRNNNHCYPMEWRCDGFQDCEDGSDEKGCPYRT-OH) |
| ≤ 1 | ≤ 1 | CSCC[C@H](NC(=O)[C@H](Cc1ccccc1)NC(=O)[C@H](CCC(=O)O)NC(=O)[C@H](Cc1ccc(O)cc1)NC(=O)[C@H](CO)NC(=O)[C@@H]1CCCN1C(=O)[C@@H](N)CS)C(=O)N[C@@H](CS)C(=O)N[C@@H](C)C(=O)N[C@@H](CC(=O)O)C(=O)N[C@@H](CCCCN)C(=O)N[C@@H](CCSC)C(=O)N[C@@H](CS)C(=O)N[C@@H](Cc1ccccc1)C(=O)N1CCC[C@H]1C(=O)N[C@@H](CC(C)C)C(=O)N[C@@H](CO)C(=O)N[C@@H](Cc1ccccc1)C(=O)N[C@@H](CC(C)C)C(=O)N[C@@H](CS)C(=O)N[C@@H](CC(=O)O)C(=O)NCC(=O)N[C@@H](CCC(=O)O)C(=O)N[C@@H](CC(N)=O)C(=O)N[C@@H](CC(=O)O)C(=O)N[C@@H](CS)C(=O)N[C@@H](CCC(=O)O)C(=O)N[C@@H](CC(=O)O)C(=O)NCC(=O)N[C@@H](CO)C(=O)N[C@@H](CC(=O)O)C(=O)N[C@@H](CCC(=O)O)C(=O)N[C@@H](CC(=O)O)C(=O)N[C@@H](Cc1ccc(O)cc1)C(=O)N[C@@H](CS)C(=O)N1CCC[C@H]1C(=O)N[C@@H](CO)C(=O)N[C@@H](CCCNC(=N)N)C(=O)N[C@H](C(=O)O)[C@@H](C)O (H-CPSYEFMCADKMCFPLSFLCDGENDCEDGSDEDYCPSRT-OH) |
| ≤ 1 | ≤ 1 | CC[C@H](C)[C@H](NC(=O)[C@H](CC(N)=O)NC(=O)CNC(=O)[C@H](CS)NC(=O)[C@H](CCC(N)=O)NC(=O)[C@H](Cc1ccccc1)NC(=O)[C@H](Cc1ccc(O)cc1)NC(=O)[C@H](CO)NC(=O)[C@H](C)NC(=O)[C@@H]1CCCN1C(=O)[C@@H](N)CS)C(=O)N[C@@H](CC(N)=O)C(=O)N[C@@H](Cc1cnc[nH]1)C(=O)N[C@@H](CS)C(=O)N[C@@H](Cc1ccc(O)cc1)C(=O)N1CCC[C@H]1C(=O)N[C@H](C(=O)N[C@@H](CCC(=O)O)C(=O)N[C@@H](Cc1c[nH]c2ccccc12)C(=O)N[C@@H](CCCNC(=N)N)C(=O)N[C@@H](CS)C(=O)N[C@@H](CC(=O)O)C(=O)NCC(=O)N[C@@H](Cc1ccccc1)C(=O)N[C@@H](CCC(N)=O)C(=O)N[C@@H](CC(=O)O)C(=O)N[C@@H](CS)C(=O)N[C@@H](CC(=O)O)C(=O)N[C@@H](CC(=O)O)C(=O)NCC(=O)N[C@@H](CO)C(=O)N[C@@H](CC(=O)O)C(=O)N[C@@H](CCC(=O)O)C(=O)N[C@@H](Cc1ccc(O)cc1)C(=O)N[C@H](C(=O)N[C@@H](CS)C(=O)N1CCC[C@H]1C(=O)N[C@@H](Cc1ccc(O)cc1)C(=O)N[C@@H](CCCNC(=N)N)C(=O)N[C@H](C(=O)O)[C@@H](C)O)C(C)C)C(C)C (H-CPASYFQCGNINHCYPVEWRCDGFQDCDDGSDEYVCPYRT-OH) |
| ≤ 1 | ≤ 1 | CSCC[C@H](NC(=O)[C@@H]1CCCN1C(=O)[C@H](Cc1ccc(O)cc1)NC(=O)[C@H](CS)NC(=O)[C@H](Cc1cnc[nH]1)NC(=O)[C@@H]1CCCN1C(=O)[C@H](Cc1cnc[nH]1)NC(=O)[C@H](CC(N)=O)NC(=O)[C@H](CCCNC(=N)N)NC(=O)[C@H](CS)NC(=O)[C@H](CCC(N)=O)NC(=O)[C@H](Cc1ccccc1)NC(=O)[C@H](Cc1ccc(O)cc1)NC(=O)[C@H](CO)NC(=O)[C@H](C)NC(=O)[C@@H]1CCCN1C(=O)[C@@H](N)CS)C(=O)N[C@@H](CCC(=O)O)C(=O)N[C@@H](Cc1c[nH]c2ccccc12)C(=O)N[C@@H](CCCNC(=N)N)C(=O)N[C@@H](CS)C(=O)N[C@@H](CC(=O)O)C(=O)NCC(=O)N[C@@H](Cc1ccccc1)C(=O)N1CCC[C@H]1C(=O)N[C@@H](CC(=O)O)C(=O)N[C@@H](CS)C(=O)N[C@H](C(=O)N[C@@H](CC(=O)O)C(=O)NCC(=O)N[C@@H](CO)C(=O)N[C@@H](CC(=O)O)C(=O)N[C@@H](CCC(=O)O)C(=O)N[C@@H](CCCCN)C(=O)NCC(=O)N[C@@H](CS)C(=O)N1CCC[C@H]1C(=O)N[C@@H](Cc1ccc(O)cc1)C(=O)N[C@@H](CCCNC(=N)N)C(=O)N[C@H](C(=O)O)[C@@H](C)O)C(C)C (H-CPASYFQCRNHPHCYPMEWRCDGFPDCVDGSDEKGCPYRT-OH) |
| ≤ 1 | ≤ 1 | CC[C@H](C)[C@H](NC(=O)[C@H](CC(=O)O)NC(=O)CNC(=O)[C@H](CC(=O)O)NC(=O)[C@H](CS)NC(=O)[C@H](CC(C)C)NC(=O)[C@H](Cc1ccccc1)NC(=O)[C@H](CO)NC(=O)[C@H](Cc1ccccc1)NC(=O)[C@@H]1CCCN1C(=O)[C@H](Cc1ccccc1)NC(=O)[C@H](CS)NC(=O)[C@@H](NC(=O)[C@H](CCCCN)NC(=O)[C@H](CC(=O)O)NC(=O)[C@H](C)NC(=O)[C@H](CS)NC(=O)[C@H](CCSC)NC(=O)[C@H](Cc1ccccc1)NC(=O)[C@H](CCC(=O)O)NC(=O)[C@H](CC(N)=O)NC(=O)[C@H](CCC(N)=O)NC(=O)[C@@H]1CCCN1C(=O)[C@@H](N)CS)[C@@H](C)O)C(=O)N[C@@H](CC(=O)O)C(=O)N[C@@H](CS)C(=O)N[C@@H](Cc1ccc(O)cc1)C(=O)N[C@@H](CC(=O)O)C(=O)NCC(=O)N[C@@H](CO)C(=O)N[C@@H](CC(=O)O)C(=O)N[C@@H](CCC(=O)O)C(=O)N[C@@H](C)C(=O)N[C@@H](Cc1ccc(O)cc1)C(=O)N[C@@H](CS)C(=O)N1CCC[C@H]1C(=O)N[C@@H](CO)C(=O)N[C@@H](CCCNC(=N)N)C(=O)N[C@H](C(=O)O)[C@@H](C)O (H-CPQNEFMCADKTCFPFSFLCDGDIDCYDGSDEAYCPSRT-OH) |
| ≤ 1 | ≤ 1 | CSCC[C@H](NC(=O)[C@@H]1CCCN1C(=O)[C@H](Cc1ccc(O)cc1)NC(=O)[C@H](CS)NC(=O)[C@H](Cc1cnc[nH]1)NC(=O)[C@H](CCCCN)NC(=O)[C@H](Cc1ccccc1)NC(=O)[C@H](CC(N)=O)NC(=O)[C@H](Cc1c[nH]c2ccccc12)NC(=O)[C@H](CS)NC(=O)[C@H](CCC(N)=O)NC(=O)[C@H](Cc1ccccc1)NC(=O)[C@H](Cc1ccc(O)cc1)NC(=O)[C@H](CO)NC(=O)[C@H](C)NC(=O)[C@@H]1CCCN1C(=O)[C@@H](N)CS)C(=O)N[C@@H](CCC(=O)O)C(=O)N[C@@H](Cc1c[nH]c2ccccc12)C(=O)N[C@@H](CCCNC(=N)N)C(=O)N[C@@H](CS)C(=O)N[C@@H](CC(=O)O)C(=O)NCC(=O)N[C@@H](Cc1ccccc1)C(=O)N[C@@H](CC(N)=O)C(=O)N[C@@H](CC(=O)O)C(=O)N[C@@H](CS)C(=O)N[C@H](C(=O)N[C@@H](CC(=O)O)C(=O)NCC(=O)N[C@@H](CO)C(=O)N[C@@H](CC(=O)O)C(=O)N[C@@H](CCC(=O)O)C(=O)N[C@@H](CCCCN)C(=O)NCC(=O)N[C@@H](CS)C(=O)N1CCC[C@H]1C(=O)N[C@@H](Cc1ccc(O)cc1)C(=O)N[C@@H](CCCNC(=N)N)C(=O)N[C@H](C(=O)O)[C@@H](C)O)C(C)C (H-CPASYFQCWNFKHCYPMEWRCDGFNDCVDGSDEKGCPYRT-OH) |
